In patent US20240165099A1, “METHODS FOR THE TREATMENT AND PREVENTION OF DISEASES OR INFECTIONS WITH MCP-1 INVOLVEMENT BY ADMINISTRATION OF TAFENOQUINE” (60 DEGREES PHARMACEUTICALS LLC, priority 2022, published 2024):

Legend:
in vitro = conditions: African green monkey, CC50, 4-day test, mock infected Vero E6 cells
Vero E6 cells = conditions: 4-day test, mock infected Vero E6 cells
Babesia = conditions: mice; single doses for tafenoquine; cited from earlier work
Pneumocystis = conditions: mice; Bartlett et al. 1991; cited from earlier work
SARS-CoV-2 [1] = test: Nasopharyngeal viral load change from baseline, regression analysis; type: in vivo, human; conditions: Log10 viral copy number/ml; baseline through Day 5; P 0.8650
Experimental: NP swabs were collected at Baseline and Day 5 and Log10 viral copy number/ml was determined utilizing the standard commercially available assay from Eurofins. Only samples from patients where valid baseline and Day 5 results were obtained were analyzed. Samples with values below the dynamic range of the assay were assigned a value equivalent to the detection limit. Samples with […] were assigned a value equivalent to half the detection limit. Viremia change from baseline was calculated by subtracting log 10 Day 5 copy number from the log 10 baseline copy number. Log10 Baseline and change from baseline values were used in the analyses.
Multivariate regression analysis (performed utilizing the standard built-in program in Graphpad Prism 9.3.1) was used to analyze the following dependent variables: Change in NP viral load from baseline through Day 5 (Regression 1) and total anti SARS-CoV-2 antibody change from baseline through Day 14 (Regression 2). The dependent variable data were tested to ensure that they passed at least three of four tests of normality (Anderson-Darling, D'Agostino-Pearson, Shapiro-Wilk and Kolmogorov-Smirnov tests) according to the standard built-in programs in GraphPad. The same independent variables described in Example 6 were utilized. […]

COVID-19 disease [2] = test: Phase II clinical trial, time to clinical recovery in mild-moderate COVID-19; type: in vivo, human
Excerpt: Laboratory endpoint and patient-level individual symptom data were collected in that study, have not been reported elsewhere, and form the basis for surprising findings about the therapeutic and mechanistic effects of tafenoquine described herein.
Longitudinal aggregate symptom data for individual patients from Dow and Smith (2022) were examined to determine the number of days required before each patients reported an aggregate symptom score of 2 for four days of more for the first time. This endpoint was not included as a pre-specified analysis in the original study design, and was only recently confirmed to be an endpoint of interest to regulars in mild-moderate COVID-19 disease in standard risk patients. […] A survival curve was generated, and data were analyzed using Graphpad Prism. […] At Day 28, which was the last day of the study, the proportion of patients with persistent COVID-19 symptoms was lower in the tafenoquine arm.

[3] = tested on: Monocyte chemotactic protein 1 (MCP-1); type: in vivo, human
[4] = tested on: total anti SARS-CoV-2 spike protein antibody; type: in vivo, human
[5] = in vivo; cited from earlier work
SARS-CoV-2 [6] = type: cell-based; conditions: calculated relative to the CC50 for the 4-day test
COVID-19 disease [7] = conditions: mild-moderate COVID-19; exploratory analyses; P<0.02; Dow and Smith 2022; cited from earlier work
[8] = doses of up to 1200 mg over three days; Green et al 2014; cited from earlier work
[9] = tested on: blood stages of P. falciparum; conditions: Baird et al. 2002; McCarthy et al. 2019; cited from earlier work
[10] = predicted Day 5 values, all group comparisons vs placebo, independent of vaccination or baseline MCP-1

Molecule CCN(CCO)CCCC(C)Nc1ccnc2cc(Cl)ccc12 (centres unmarked) [Hydroxychloroquine] has a CC50 (in vitro) of ~55 µM and a CC50 (Vero E6 cells) of 67 µM.
For COc1cc(NC(C)CCCN)c2ncccc2c1 (centres unmarked) [Primaquine], the “dose that cleared Babesia parasitemia” value (Babesia) is given as 100 mg/kg and the “cure of Pneumocystis infections” value (Pneumocystis) is given as “must be combined with clindamycin”.
For COc1cc(C)c2c(Oc3cccc(C(F)(F)F)c3)c(OC)cc(NC(C)CCCN)c2n1 (centres unmarked) [Tafenoquine], the “Regression 1: NP Viral Load CFB, Beta for Treatment (TQ = 1, PL = 0)” value (SARS-CoV-2 [1]) was −0.0735/, the “median time to clinical recovery” value (COVID-19 disease [2]; COVID-19 patients, 200 mg on Days 1, 2, 3 and 10, sustained recovery for four days or more, placebo 16 days) was 13 days and the “proportion of patients with persistent COVID-19 symptoms at Day 28” value (COVID-19 disease [2]; tafenoquine arm vs placebo, Day 28) was “lower”. For the same molecule, the “dose that cleared Babesia parasitemia” value (Babesia) was 20 mg/kg, the “Regression 1: MCP1 Day 5 CFB (Multivariate), Beta for Treatment (TQ = 1, PL = 0)” value ([3]; Day 5 value − Baseline value, P 0.0093) was −74.4/ and the “Regression 2: MCP1 Day 14 CFB for high baseline MCP1, Beta for Treatment” value ([3]; baseline MCP-1 exceeding 350 units/ml, P 0.3304) was 78.9/. The “Regression 3: MCP1 Day 14 CFB for low baseline MCP1, Beta for Treatment” value ([3]; baseline MCP-1 less than 350 units/ml, P 0.2356) was −35.0/, the “Regression: MCP1 Day 14 CFB (rank-transformed), Beta for Treatment” value ([3]; human, in vivo) was 0.584// and the “reduction in Day 5 MCP-1 (absolute)” value [3, 10] was “at least 41”. The “reduction in Day 5 MCP-1 (percent)” value [3, 10] was ≥ 10%, the “Regression 1: MCP1 Day 5 (Univariate), Beta for Treatment” value ([3]; univariate, P 0.2548) was −45.2/ and the “effect on total anti-SARS-CoV-2 antibody generation” value ([4]; P=0.546 as printed) was “did not affect”. The “Regression 2: Antibodies CFB (unvaccinated), Beta for Treatment” value ([4]; in vivo) was −0.671/, the half-life [5] was 14 days and the selectivity index (SARS-CoV-2 [6]) was 14.3. For the same molecule, the “recovery from fever, cough and shortness of breath” value (COVID-19 disease [7]) was “accelerate recovery”, the “effect on upper limit of 90% confidence interval of the QTC interval” value [8] was “not found to increase” and the “cure of Pneumocystis infections” value (Pneumocystis) was “can be administered as monotherapy to cure”. For the same molecule, the “activity against the blood stages of P. falciparum” value [9] was “quite effective”.
